Test results published in the supplement of paper PMC11061612.

Experiments:
Assay in all cases: combination Emax (second highest fraction inhibited in the dose matrix, 72 h); higher = more inhibition; extreme values may be limits of the assay
[1] = system: 697 (B-Lymphoblastic Leukemia)
Procedure, shortened: (§1)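 Bliss excess equals the observed combination effect minus the expected value EA + EB − EA·EB, where EA and EB are the effects of each agent alone. Combination Emax is the second-highest inhibition within the matrix. Inhibition was scaled from CellTiter-Glo 2.0 luminescence, with 0 set by vehicle wells and 1 by blank wells, after 72 hours of two-drug dosing of cells plated in 1536-well plates.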

[2] = system: C3A (Hepatocellular Carcinoma)
Procedure, shortened: as §1

[3] = system: COR-L23 (Non-Small Cell Lung Carcinoma)
Procedure, shortened: as §1

[4] = system: CTV-1 (T-Lymphoblastic Leukemia)
Procedure, shortened: as §1

[5] = system: DB (B-Cell Non-Hodgkin's Lymphoma)
Procedure, shortened: as §1

[6] = system: DMS-273 (Small Cell Lung Carcinoma)
Procedure, shortened: as §1

[7] = system: EM-2 (Chronic Myelogenous Leukemia)
Procedure, shortened: as §1

ES7 (Ewing's Sarcoma) = system: ES7 (Ewing's Sarcoma)
Procedure, shortened: as §1

[8] = system: G-292-Clone-A141B1 (Osteosarcoma)
Procedure, shortened: as §1

[9] = system: HT-29 (Colorectal Carcinoma)
Procedure, shortened: as §1

J82 (Bladder Carcinoma) = system: J82 (Bladder Carcinoma)
Procedure, shortened: as §1

[10] = system: JiyoyeP-2003 (Burkitt's Lymphoma)
Procedure, shortened: as §1

[11] = system: KATOIII (Gastric Carcinoma)
Procedure, shortened: as §1

[12] = system: LU-99A (Non-Small Cell Lung Carcinoma)
Procedure, shortened: as §1

[13] = system: NCI-H1694 (Small Cell Lung Carcinoma)
Procedure, shortened: as §1

[14] = system: NCI-H1781 (Lung Adenocarcinoma)
Procedure, shortened: as §1

[15] = system: NCI-H1793 (Lung Adenocarcinoma)
Procedure, shortened: as §1

RH-1 (Ewing's Sarcoma) = system: RH-1 (Ewing's Sarcoma)
Procedure, shortened: as §1

[16] = system: SW1783 (Low Grade Glioma)
Procedure, shortened: as §1

[17] = system: TE-5 (Esophageal Squamous Cell Carcinoma)
Procedure, shortened: as §1

Structure (SMILES) | combination Emax [1] | combination Emax [2] | combination Emax [3] | combination Emax [4] | combination Emax [5] | combination Emax [6] | combination Emax [7] | combination Emax (ES7 (Ewing's Sarcoma)) | combination Emax [8] | combination Emax [9] | combination Emax (J82 (Bladder Carcinoma)) | combination Emax [10] | combination Emax [11] | combination Emax [12] | combination Emax [13] | combination Emax [14] | combination Emax [15] | combination Emax (RH-1 (Ewing's Sarcoma)) | combination Emax [16] | combination Emax [17]
CN(C)CCCOc1ccc(-c2ccc3ncc4c(c3c2)n(C2CCOCC2)c(=O)n4C)cn1 [AZD0156] + C=CCn1c(=O)c2cnc(Nc3ccc(N4CCN(C)CC4)cc3)nc2n1-c1cccc(C(C)(C)O)n1 [AZD1775] (first compound max 1 µM, partner max 1 µM) | 1 | 0.524 | 0.298 | 0.962 | 0.891 | 0.589 | 0.902 | 0.542 | 0.197 | 0.83 | 0.333 | 0.937 | 0.213 | 0.677 | 0.367 | 0.43 | 0.387 | 1 | 0.179 | 0.352
CN(C)CCCOc1ccc(-c2ccc3ncc4c(c3c2)n(C2CCOCC2)c(=O)n4C)cn1 [AZD0156] + CCN(CCO)CCCOc1ccc2c(Nc3cc(CC(=O)Nc4cccc(F)c4)[nH]n3)ncnc2c1 [AZD2811] (first compound max 1 µM, 7x7, partner max 1 µM) | 1 | 0.129 | 0.116 | 0.234 | 0.559 | 0.793 | 0.852 | 0.799 | 0.111 | 0.166 | 0.283 | 0.408 | 0.0129 | 0.473 | 0.278 | 0.608 | 0.182 | 0.956 | 0.0598 | 0.1
CN(C)CCCOc1ccc(-c2ccc3ncc4c(c3c2)n(C2CCOCC2)c(=O)n4C)cn1 [AZD0156] + C[C@@H]1COCCN1C2=NC(=NC(=C2)C3(CC3)[S@](=N)(=O)C)C4=C5C=CNC5=NC=C4 [AZD6738] (first compound max 1 µM, 7x7, partner max 10 µM) | 1 | 0.584 | 0.687 | 0.829 | 0.628 | 0.834 | 0.949 | 0.846 | 0.263 | 0.823 | 0.396 | 0.955 | 0.519 | 0.784 | 0.711 | 0.346 | 0.455 | 0.938 | 0.257 | 0.481
CN(C)CCCOc1ccc(-c2ccc3ncc4c(c3c2)n(C2CCOCC2)c(=O)n4C)cn1 [AZD0156] + O=C(c1cc(Cc2n[nH]c(=O)c3ccccc23)ccc1F)N1CCN(C(=O)C2CC2)CC1 [Olaparib] (first compound max 3 µM, partner max 3 µM) | 0.97 | 0.22 | 0.39 | 0.303 | 0.476 | 0.433 | 0.306 | 0.853 | 0.411 | 0.407 | 0.128 | 0.311 | 0.195 | 0.408 | – | 0.585 | 0.496 | 0.649 | 0.401 | 0.302
C=CCn1c(=O)c2cnc(Nc3ccc(N4CCN(C)CC4)cc3)nc2n1-c1cccc(C(C)(C)O)n1 [AZD1775] + C1CN(CCC1(C(=O)N[C@@H](CCO)C2=CC=C(C=C2)Cl)N)C3=NC=NC4=C3C=CN4 [Capivasertib] (first compound max 3 µM, partner max 3 µM) | 1 | 0.62 | 0.895 | 0.983 | 0.893 | 0.896 | 0.948 | 0.808 | 0.492 | 0.834 | 0.468 | 0.931 | 0.476 | 0.623 | – | 0.858 | 0.428 | 0.98 | 0.688 | 0.66
C=CCn1c(=O)c2cnc(Nc3ccc(N4CCN(C)CC4)cc3)nc2n1-c1cccc(C(C)(C)O)n1 [AZD1775] + O=C(c1cc(Cc2n[nH]c(=O)c3ccccc23)ccc1F)N1CCN(C(=O)C2CC2)CC1 [Olaparib] (first compound max 1 µM, partner max 10 µM) | 1 | 0.55 | 0.224 | 0.977 | 0.912 | 0.549 | 0.938 | – | 0.294 | 0.818 | 0.195 | 0.915 | 0.198 | 0.546 | 0.404 | 0.538 | 0.379 | 1 | 0.342 | 0.411
